Assay results published in PubChem BioAssay (NCI).
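At the GI50, growth is halved. TGI: total growth inhibition.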

What was measured:
Experiment in all cases: inhibition of tumour cell growth, NCI panel, 384-well format
[1] = test system: TK-10 renal
[2] = test system: UO-31 renal
[3] = test system: HCC-2998 colon
[4] = test system: RPMI-8226 leukemia
[5] = test system: SK-MEL-28 melanoma
[6] = test system: A549 NSCLC
[7] = test system: NCI-H322M lung
[8] = test system: RXF 393 renal
[9] = test system: MOLT-4 leukemia
[10] = test system: HT29 colon
[11] = test system: HOP-92 NSCLC
[12] = test system: SF-268 CNS
[13] = test system: A498 renal
[14] = test system: COLO 205 colon
[15] = test system: SN12C renal
[16] = test system: 786-0 renal
[17] = test system: MDA-MB-435 melanoma
[18] = test system: DU-145 prostate
[19] = test system: OVCAR-4 ovarian
[20] = test system: SR leukemia
[21] = test system: NCI/ADR-RES ovarian
[22] = test system: NCI-H23 lung
[23] = test system: M14 melanoma
[24] = test system: HS 578T breast
[25] = test system: MCF7 breast
[26] = test system: NCI-H522 lung
[27] = test system: U251 glioblastoma
[28] = test system: PC-3 prostate
[29] = test system: OVCAR-8 ovarian
[30] = test system: OVCAR-5 ovarian
[31] = test system: UACC-62 melanoma
[32] = test system: HL-60(TB) leukemia
[33] = test system: CCRF-CEM leukemia
[34] = test system: SNB-19 CNS
[35] = test system: SF-295 CNS
[36] = test system: T-47D breast
[37] = test system: UACC-257 melanoma
[38] = test system: EKVX NSCLC
[39] = test system: SK-OV-3 ovarian
[40] = test system: HCT-15 colon
[41] = test system: MDA-MB-468 breast
[42] = test system: MDA-MB-231 breast
[43] = test system: SK-MEL-2 melanoma
[44] = test system: OVCAR-3 ovarian
[45] = test system: ACHN renal
[46] = test system: HOP-62 NSCLC
[47] = test system: SW-620 colon

Question: Which GI50 [1] does the source give for `O=C(Nc1cnn2ccc(N3CCC[C@@H]3c3cc(F)ccc3F)nc12)N1CC[C@H](O)C1` here?
Answer: > 100 µM

Question: What about the TGI [1] of the same molecule?
Answer: > 100 µM

Question: What about the GI50 [2] of the same molecule?
Answer: > 100 µM

Question: And the TGI [2]?
Answer: > 100 µM

Question: What about the GI50 [3] of the same molecule?
Answer: > 100 µM

Question: What about the TGI [3] of the same molecule?
Answer: > 100 µM

Question: What about the GI50 [4] of the same molecule?
Answer: > 100 µM

Question: And the TGI [4]?
Answer: > 100 µM

Question: And the GI50 [5]?
Answer: > 100 µM

Question: What about the TGI [5] of the same molecule?
Answer: > 100 µM

Question: What about the GI50 [6] of the same molecule?
Answer: > 100 µM

Question: And the TGI [6]?
Answer: > 100 µM

Question: And the GI50 [7]?
Answer: > 100 µM

Question: And the TGI [7]?
Answer: > 100 µM

Question: And the GI50 [8]?
Answer: > 100 µM

Question: And the TGI [8]?
Answer: > 100 µM

Question: And the GI50 [9]?
Answer: 77.1 µM

Question: And the TGI [9]?
Answer: > 100 µM

Question: And the GI50 [10]?
Answer: > 100 µM

Question: What about the TGI [10] of the same molecule?
Answer: > 100 µM

Question: What about the GI50 [11] of the same molecule?
Answer: > 100 µM

Question: What about the TGI [11] of the same molecule?
Answer: > 100 µM

Question: And the GI50 [12]?
Answer: > 100 µM

Question: And the TGI [12]?
Answer: > 100 µM

Question: What about the GI50 [13] of the same molecule?
Answer: > 100 µM

Question: What about the TGI [13] of the same molecule?
Answer: > 100 µM

Question: And the GI50 [14]?
Answer: > 100 µM

Question: What about the TGI [14] of the same molecule?
Answer: > 100 µM

Question: What about the GI50 [15] of the same molecule?
Answer: > 100 µM

Question: What about the TGI [15] of the same molecule?
Answer: > 100 µM

Question: And the GI50 [16]?
Answer: > 100 µM

Question: What about the TGI [16] of the same molecule?
Answer: > 100 µM

Question: And the GI50 [17]?
Answer: > 100 µM

Question: And the TGI [17]?
Answer: > 100 µM

Question: What about the GI50 [18] of the same molecule?
Answer: > 100 µM

Question: What about the TGI [18] of the same molecule?
Answer: > 100 µM

Question: And the GI50 [19]?
Answer: > 100 µM

Question: And the TGI [19]?
Answer: > 100 µM

Question: What about the GI50 [20] of the same molecule?
Answer: > 78.9 µM

Question: And the TGI [20]?
Answer: > 100 µM

Question: And the GI50 [21]?
Answer: > 100 µM

Question: And the TGI [21]?
Answer: > 100 µM

Question: And the GI50 [22]?
Answer: > 100 µM

Question: And the TGI [22]?
Answer: > 100 µM

Question: What about the GI50 [23] of the same molecule?
Answer: > 100 µM

Question: What about the TGI [23] of the same molecule?
Answer: > 100 µM

Question: And the GI50 [24]?
Answer: > 100 µM

Question: And the TGI [24]?
Answer: > 100 µM

Question: And the GI50 [25]?
Answer: > 100 µM

Question: And the TGI [25]?
Answer: > 100 µM

Question: What about the GI50 [26] of the same molecule?
Answer: > 100 µM

Question: And the TGI [26]?
Answer: > 100 µM

Question: And the GI50 [27]?
Answer: > 100 µM

Question: And the TGI [27]?
Answer: > 100 µM

Question: And the GI50 [28]?
Answer: > 100 µM

Question: What about the TGI [28] of the same molecule?
Answer: > 100 µM

Question: What about the GI50 [29] of the same molecule?
Answer: > 100 µM

Question: What about the TGI [29] of the same molecule?
Answer: > 100 µM

Question: And the GI50 [30]?
Answer: > 100 µM

Question: And the TGI [30]?
Answer: > 100 µM

Question: And the GI50 [31]?
Answer: > 100 µM

Question: What about the TGI [31] of the same molecule?
Answer: > 100 µM

Question: What about the GI50 [32] of the same molecule?
Answer: > 100 µM

Question: And the TGI [32]?
Answer: > 100 µM

Question: And the GI50 [33]?
Answer: > 100 µM

Question: And the TGI [33]?
Answer: > 100 µM

Question: What about the GI50 [34] of the same molecule?
Answer: > 100 µM

Question: What about the TGI [34] of the same molecule?
Answer: > 100 µM

Question: What about the GI50 [35] of the same molecule?
Answer: > 100 µM

Question: And the TGI [35]?
Answer: > 100 µM

Question: What about the GI50 [36] of the same molecule?
Answer: > 100 µM

Question: And the TGI [36]?
Answer: > 100 µM

Question: And the GI50 [37]?
Answer: > 100 µM

Question: And the TGI [37]?
Answer: > 100 µM

Question: What about the GI50 [38] of the same molecule?
Answer: > 100 µM

Question: And the TGI [38]?
Answer: > 100 µM

Question: And the GI50 [39]?
Answer: > 100 µM

Question: And the TGI [39]?
Answer: > 100 µM

Question: What about the GI50 [40] of the same molecule?
Answer: > 100 µM

Question: And the TGI [40]?
Answer: > 100 µM

Question: What about the GI50 [41] of the same molecule?
Answer: > 100 µM

Question: What about the TGI [41] of the same molecule?
Answer: > 100 µM

Question: What about the GI50 [42] of the same molecule?
Answer: > 100 µM

Question: And the TGI [42]?
Answer: > 100 µM

Question: What about the GI50 [43] of the same molecule?
Answer: > 100 µM

Question: And the TGI [43]?
Answer: > 100 µM

Question: And the GI50 [44]?
Answer: > 100 µM

Question: And the TGI [44]?
Answer: > 100 µM

Question: And the GI50 [45]?
Answer: > 100 µM

Question: What about the TGI [45] of the same molecule?
Answer: > 100 µM

Question: What about the GI50 [46] of the same molecule?
Answer: > 100 µM

Question: What about the TGI [46] of the same molecule?
Answer: > 100 µM

Question: And the GI50 [47]?
Answer: > 100 µM

Question: What about the TGI [47] of the same molecule?
Answer: > 100 µM
